Series [1] concerns GLP1R. The settings on record: higher at GLP1R; cited from earlier work. The text has this:
Noteworthy, the in vitro binding affinity for SAR425899 at the GLP1R was ~ fivefold higher than at the GCGR. This ratio of binding capacities has been chosen to prevent unwanted glucagon effects like increase of blood glucose. In fact, an increase of blood glucose has not been observed so far in a clinical setting. […] The exposure achieved with this dose in humans, however, might be too low to ...

For series [2], the target named is T1, human GCGR (Homo sapiens, UniProt P47871).
T1 construct: expressed in transfected cells; host or cells: HEK293
T1 sequence (P47871 26-477): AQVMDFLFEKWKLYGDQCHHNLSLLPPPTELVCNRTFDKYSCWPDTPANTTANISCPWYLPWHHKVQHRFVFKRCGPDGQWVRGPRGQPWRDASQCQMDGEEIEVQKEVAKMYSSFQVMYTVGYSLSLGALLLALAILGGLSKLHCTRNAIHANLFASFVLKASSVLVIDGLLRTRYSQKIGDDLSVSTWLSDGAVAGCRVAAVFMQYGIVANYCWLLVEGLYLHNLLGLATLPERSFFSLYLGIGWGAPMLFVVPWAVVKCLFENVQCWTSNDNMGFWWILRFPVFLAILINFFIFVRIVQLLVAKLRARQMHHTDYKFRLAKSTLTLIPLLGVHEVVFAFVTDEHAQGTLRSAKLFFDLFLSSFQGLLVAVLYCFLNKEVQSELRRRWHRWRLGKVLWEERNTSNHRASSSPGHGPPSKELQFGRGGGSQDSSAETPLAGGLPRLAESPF
Put plainly: In vitro displacement of [^68Ga]Ga-DO3A-Tuna-2 in HEK293 cells overexpressing the human GCGR. Type of series: binding. The settings on record: pre-treatment with 50 µM, three independent experiments. The protocol:
Figure 5 [^68Ga]Ga-DO3A-Tuna-2 was displaced by SAR525899 in vitro. HEK293 cells overexpressing the human GCGR were incubated with either [^68Ga]Ga-DO3A-Tuna-2 alone, or following pre-treatment with 50 µM SAR525899. Data from three independent repeated experiments. Stars indicate p < 0.001 as assessed by a Students t-test.

Series [3] in a line: Liver volume on CT images. The series is classed as in vivo, human. As to conditions: for Liver volume change: Fig. 2B. The protocol: Both factors could potentially quantitatively impact the binding of [^68Ga]Ga-DO3A-Tuna-2 in the liver. Thus, the SUV55min at follow-up investigation was proportionally corrected for the decrease in liver volume compared to baseline. Additionally, SUV55min at baseline was corrected to the plasma glucagon value of the individual at follow-up to enable direct comparison between the PET assessments.
Marked weight loss and glucose lowering, as observed in this study, may have rapid and meaningful effects on the hepatic volume in short time periods, due primarily to the depletion of liver glycogen, which in turn bind large amounts of water. A reduction of the liver volume due to decrease in glycogen and water could likely affect the PET data by increasing the hepatocyte density (and in turn the GCGR density) per voxel. The liver volume was therefore assessed on CT images, and the [^68Ga]Ga-DO3A-Tuna-2 liver uptake SUV55min data corrected for the corresponding change in hepatic volume on an individual level. However, this correction may also introduce errors especially since there are inhomogeneities in GCGR expression levels in different parts of the liver (Fig. 3A,C,E). Furthermore, this correction assumes negligible changes on GCGR expression on hepatocytes over time. The occupancy data before the different corrections are therefore reported separately in Fig. 4C,D. Further corrections regarding the potentially non-isotropic GCGR expression could be attempted, but regardless the impact on the occupancy is expected to be low, while potentially introducing noise to the assessment. [^68Ga]Ga-DO3A-Exendin-4 uptake in pancreas is not expected to require correction, as no similar mechanism for rapid volume change is present in pancreas.

Series [4] can be described thus: Plasma pharmacokinetics of SAR425899 (LC-MS/MS). The settings on record: human, in vivo, sc, 0.2 mg. The protocol: Blood samples were collected at multiple time points after the last dose on Day 20 for measurement of SAR425899 in plasma using a liquid chromatography with tandem mass spectrometry (LC–MS/MS) method. Peak plasma concentrations (Cmax), time to Cmax (tmax) and area under the plasma concentration versus time curve for the last measurable plasma concentration (AUC0–last) were calculated using noncompartmental methods.

Structures are written as SMILES.

Regarding `CCCCCCCCCCCCCCCC(=O)N[C@@H](CCC(=O)N[C@@H](CCC(=O)NCCCC[C@H](NC(=O)[C@H](CCC(N)=O)NC(=O)[C@H](CCCCN)NC(=O)[C@H](CO)NC(=O)[C@H](CC(C)C)NC(=O)[C@H](CC(=O)O)NC(=O)[C@H](CO)NC(=O)[C@@H](NC(=O)[C@H](Cc1ccccc1)NC(=O)[C@@H](NC(=O)CNC(=O)[C@H](CCC(N)=O)NC(=O)[C@@H](CO)NC(=O)[C@@H](N)Cc1c[nH]cn1)[C@@H](C)O)[C@@H](C)O)C(=O)N[C@@H](CCC(=O)O)C(=O)N[C@@H](CO)C(=O)N[C@@H](CCCCN)C(=O)N[C@@H](C)C(=O)N[C@@H](C)C(=O)N[C@@H](CCC(N)=O)C(=O)N[C@@H](CC(=O)O)C(=O)N[C@@H](Cc1ccccc1)C(=O)N[C@H](C(=O)N[C@@H](CCC(=O)O)C(=O)N[C@@H](Cc1c[nH]c2ccccc12)C(=O)N[C@@H](CC(C)C)C(=O)N[C@@H](CCCCN)C(=O)N[C@@H](C)C(=O)NCC(=O)NCC(=O)N1CCC[C@H]1C(=O)N[C@@H](CO)C(=O)N[C@@H](CO)C(=O)NCC(=O)N[C@@H](C)C(=O)N1CCC[C@H]1C(=O)N1CCC[C@H]1C(=O)N1CCC[C@H]1C(=O)N[C@@H](CO)C(N)=O)[C@@H](C)CC)C(=O)O)C(=O)O` [SAR425899], the “in vitro binding affinity at the GLP1R relative to the GCGR” value in series [1] is “~ fivefold”. Moreover, in series [2] (p < 0.001), the “displacement of [^68Ga]Ga-DO3A-Tuna-2” value is on record as “competes for the same binding site”. For the same compound, the “displacement of [^68Ga]Ga-DO3A-Tuna-2” value in series [2] (p < 0.001, listed as SAR525899) was “displaced”. Also, the Liver volume change in series [3] (0.12mg) is reported as -0.8%. Also, the Liver volume change in series [3] (0.2mg) is -10.4%. In addition, the “decrease in liver volume” value in series [3] (under treatment with SAR425899, average (SD)) is 10.4 (6.1) %. Further, in series [3] (under treatment with SAR425899, mean (SD), baseline 2.14 (0.45) dm^3), the “liver volume at follow up” value was 1.91 (0.36) dm^3. In addition, in series [4], the exposure AUC(0-t) (usually the area under the concentration-time curve up to a stated or last time point) was 217 ng·h/mL; the Cmax (as a rule, the peak of the concentration-time curve) was 25.1 ng/mL; the Tmax (as a rule, the time from dosing to the highest level) amounted to 7.62 h.
